Experimental data as given in publication PMC7349657, “Efficient Targeted Degradation via Reversible and Irreversible Covalent PROTACs” (Journal of the American Chemical Society, 2020).

Assays:
BTK kinase domain = biological target: T1, BTK kinase domain (Homo sapiens, UniProt Q06187); experiment: LC-MS covalent binding and ibrutinib competition assay with recombinant BTK kinase domain; settings: for displacement by ibrutinib (ibrutinib adduct formation): 40 μM ibrutinib added to preformed complex; for displacement by ibrutinib (ibrutinib adduct formation) / time scale of exchange / dissociation of the covalent complex: 37 °C; for displacement by ibrutinib (ibrutinib adduct formation) / protein labeled by the PROTAC / formation of covalent complex with BTK: LC-MS; for time scale of exchange / dissociation of the covalent complex: 40 μM ibrutinib; for protein labeled by the PROTAC / formation of covalent complex with BTK: 3 μM compound + 2 μM BTK
T1 construct: human BTK kinase domain (residues 387–659); 6xHis (N, cleaved yes); TEV protease cleavage site (N, cleaved yes); made in house; virus produced in Sf9, expression in Tni insect cells
Method: We also used LC-MS to directly observe the formation of covalent complexes with recombinant BTK and measure their dissociation kinetics (Figure 6C, D, Supporting Figure 5A).
Binding experiments were performed in Tris 20 mM pH = 8, 50 mM NaCl, and 1 mM DTT. BTK kinase domain was diluted to 2 μM in buffer, and 3 μM PROTAC was added by adding 1/100th volume from a 300 μM solution. The PROTACs were incubated with BTK at room temperature for various times. For testing by LCMS, 24 μL of the solution was mixed with 6 μL of 2.4% formic acid, and 10 μL was injected to LCMS.
For binding experiments in the presence of glutathione, freshly dissolved reduced glutathione was incubated at 6.14 mM with 4 μM compounds for 30 min at room temperature in Tris 20 mM pH = 8 and 50 mM NaCl. At this point BTK was added to a concentration of 2 μM (diluting the GSH to 5 mM and the compounds to 3.25 μM), and LC-MS was used as described previously to follow the covalent labeling of BTK.
For data analysis, the raw spectra were deconvoluted using a 27 000:37 000 Da window and 1 Da resolution. The signal from masses 27 000:30 000 and 34 000:37 000 (which contained no peaks) was averaged and subtracted from the whole signal.
Cloning and Over Expression of BTK
Human wild type BTK full length was obtained from the ORFeome (ref: http://www.orfeomecollaboration.org/), from which the full human BTK gene (clone HsCD00433457) was inserted into the mammalian expression vector pCDNA3.1. In parallel, a mutant BTK C481S was constructed by assemble 2 PCR products harboring the desired mutation and cloned into pCDNA3.1. Both constructs contain a C -terminal 6x-His tag and three amino acids sequence (GTK) linker between the BTK coding sequence and the His tag.
The expression of hBTK is driven by the CMV promoter. U2OS cells (ATCC HTB-96) were grown to 70% confluency in a 10 cm plate, transfected with either hBTK plasmid (BTK WT or C481S) using Lipofectamine 2000 reagent (Thermo Fisher Scientific) according to manufacturer’s instructions. Cells were subsequently incubated for 48 hours post transfection, trypsinized and resuspended in 12 mL medium, and divided 2 mL per well in a 6-well plates and left to adhere over-night. 72 hours post transfection 100 nM PROTACs were added for 24 hours and BT K was measured by performing western blot procedure as described in the main […]
Expression and Purification of Recombinant BTK
The expression and purification of human BTK kinase domain (residues 387–659) was based on the method used by Bradsha w JM. et al1. The kinase domain was inserted into pFastBac-1 with an N-terminal 6× -His tag followed by a TEV protease cleavage site (The plasmid was a gift from Dr. Ville Paavilainen, University of Helsinki). Viruses were produced […]
cells by infection of 2 L of cultured cells with 1:200 mL virus solution such that cell growth was terminated after 3 days. The cells were collected by centrifugation (800 g for 15 minutes), and the pellet was resu spended in 50 mL ly sis buf fer (10 mM Hepes, pH 7.5, 400 mM NaCl, 1.5 mM DTT) supplemented with 1× protease inhibitor cocktail (Roche). The cells were lysed by five passages through a cell homogenizer. The cellular debris wer e pelleted by centrifugation (30,000 g for 30 minutes). The protein was bound in batch to nickel– nitrilotriacetic acid agarose beads in binding buffer (lysis buffer supplemented with 20 mM imidazole) for 4 hours at 4°C. The beads were washed with additional binding buffer ( four 5 mL washes), and the protein was eluted with four 0.5 mL portions of elution buffer (lysis buffer […]
supplemented with 300 mM imidazole). The His tag was cleaved by the addition of TEV protease with concomitant dialysis overnight into cleavage buffer (50 mM Tris, pH 8.0, 0.5 mM EDTA, 1 mM DTT) at 4°C. The resulting soluble protein was passed ov er Ni -NTA beads to remove the protease and purified further by gel filtration on a HiLoad_16/60_Superdex_75 (GE Healthcare) column equilibrated with 20 mM Tris, pH 8.0, 50 mM NaCl, 1 mM DTT. The […]

wild-type BTK = wild-type BTK (Homo sapiens, UniProt Q06187); experiment: In vitro kinase activity assay, wild-type BTK (Nanosyn)
Sequence of wild-type BTK (Q06187 whole entry, species assumed): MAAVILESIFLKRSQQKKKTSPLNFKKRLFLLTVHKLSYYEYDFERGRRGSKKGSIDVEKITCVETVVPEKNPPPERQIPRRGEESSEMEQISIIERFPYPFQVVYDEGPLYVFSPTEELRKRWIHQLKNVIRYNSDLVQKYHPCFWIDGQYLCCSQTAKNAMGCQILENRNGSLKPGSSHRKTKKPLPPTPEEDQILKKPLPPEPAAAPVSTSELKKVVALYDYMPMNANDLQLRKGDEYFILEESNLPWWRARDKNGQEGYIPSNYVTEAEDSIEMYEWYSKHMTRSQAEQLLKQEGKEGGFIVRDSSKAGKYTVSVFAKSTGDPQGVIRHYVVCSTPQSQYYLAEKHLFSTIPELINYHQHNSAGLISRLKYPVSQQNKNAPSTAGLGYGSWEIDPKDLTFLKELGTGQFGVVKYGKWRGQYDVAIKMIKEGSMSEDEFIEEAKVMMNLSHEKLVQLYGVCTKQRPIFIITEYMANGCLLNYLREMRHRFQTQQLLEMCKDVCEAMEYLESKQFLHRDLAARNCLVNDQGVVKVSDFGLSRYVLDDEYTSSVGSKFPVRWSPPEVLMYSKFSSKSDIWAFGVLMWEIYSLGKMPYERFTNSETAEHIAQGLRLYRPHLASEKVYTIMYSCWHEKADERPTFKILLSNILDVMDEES

T1 sequence (Q06187 387-659): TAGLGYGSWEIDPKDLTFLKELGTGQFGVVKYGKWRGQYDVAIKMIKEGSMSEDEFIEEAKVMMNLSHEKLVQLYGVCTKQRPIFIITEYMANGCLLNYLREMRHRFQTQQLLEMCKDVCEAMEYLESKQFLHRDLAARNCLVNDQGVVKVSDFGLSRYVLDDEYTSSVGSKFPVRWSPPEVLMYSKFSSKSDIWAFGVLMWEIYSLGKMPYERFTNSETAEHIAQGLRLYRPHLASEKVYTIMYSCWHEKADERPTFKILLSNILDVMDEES

Row | Compound | displacement by ibrutinib (ibrutinib adduct formation) (BTK kinase domain) | time scale of exchange / dissociation of the covalent complex (BTK kinase domain) [h] | IC50 (wild-type BTK) [nM] | protein labeled by the PROTAC (BTK kinase domain) | formation of covalent complex with BTK (BTK kinase domain; room temperature) | ibrutinib labeling of BTK in presence of the PROTAC (BTK kinase domain; 4 μM ibrutinib, 1 h, room temperature) [%] | time to full ibrutinib labeling of BTK in presence of preincubated PROTAC (BTK kinase domain; 4 μM ibrutinib, room temperature) [h]
1 | N#CC(=CCCCCOCCOCCOCCOCCOc1cccc2c1C(=O)N(C1CCC(=O)NC1=O)C2=O)C(=O)N1CCCC(n2nc(-c3ccc(Oc4ccccc4)cc3)c3c(N)ncnc32)C1 (centres unmarked) [RC-2] | gradual displacement of the PROTAC by ibrutinib | 10 to 20 | 1 | – | – | – | –
2 | Nc1ncnc2c1c(-c1ccc(Oc3ccccc3)cc1)nn2C1CCCN(C(=O)C=CCCCCOCCOCCOCCOCCOc2cccc3c2C(=O)N(C2CCC(=O)NC2=O)C3=O)C1 (centres unmarked) [IR-2] | no ibrutinib adduct was observed even after 28 h | – | 14 | 80–85% | – | – | –
3 | Nc1ncnc2c1c(-c1ccc(Oc3ccccc3)cc1)nn2C1CCCN(C(=O)C=CCOCCOCCOCCOCCOCCOc2cccc3c2C(=O)N(C2CCC(=O)NC2=O)C3=O)C1 (centres unmarked) [IR-1] | no ibrutinib adduct was observed even after 28 h | – | 2 | 80–85% | – | – | –
4 | CC(C)(C=C(C#N)C(=O)N1CCCC(n2nc(-c3ccc(Oc4ccccc4)cc3)c3c(N)ncnc32)C1)CCCOCCOCCOCCOCCOc1cccc2c1C(=O)N(C1CCC(=O)NC1=O)C2=O (centres unmarked) [RC-3] | gradual displacement of the PROTAC by ibrutinib | 10 to 20 | 0.4 | – | extremely fast | – | –
5 | Nc1ncnc2c1c(-c1ccc(Oc3ccccc3)cc1)nn2C1CCCN(C(=O)CCCCCCOCCOCCOCCOCCOc2cccc3c2C(=O)N(C2CCC(=O)NC2=O)C3=O)C1 (centres unmarked) [NC-1] | – | – | 16 | – | forms no covalent adduct | 100 | ≤ 1
